Measured values from patent publication US8420696B2, “Use of low-dose ladostigil for neuroprotection” (priority 2005, dated 2013).

Key:
MAO-B = molecular target: T1, MAO-B (Rattus norvegicus, UniProt P19643); assay: Example 2: MAO-B activity in homogenates of striatum; format: in vivo, rats; conditions: chronic 1 mg/kg
T1 construct: from tissue; host or cells: striatum homogenate of dosed Sprague-Dawley rats
T1 sequence (P19643 1-520): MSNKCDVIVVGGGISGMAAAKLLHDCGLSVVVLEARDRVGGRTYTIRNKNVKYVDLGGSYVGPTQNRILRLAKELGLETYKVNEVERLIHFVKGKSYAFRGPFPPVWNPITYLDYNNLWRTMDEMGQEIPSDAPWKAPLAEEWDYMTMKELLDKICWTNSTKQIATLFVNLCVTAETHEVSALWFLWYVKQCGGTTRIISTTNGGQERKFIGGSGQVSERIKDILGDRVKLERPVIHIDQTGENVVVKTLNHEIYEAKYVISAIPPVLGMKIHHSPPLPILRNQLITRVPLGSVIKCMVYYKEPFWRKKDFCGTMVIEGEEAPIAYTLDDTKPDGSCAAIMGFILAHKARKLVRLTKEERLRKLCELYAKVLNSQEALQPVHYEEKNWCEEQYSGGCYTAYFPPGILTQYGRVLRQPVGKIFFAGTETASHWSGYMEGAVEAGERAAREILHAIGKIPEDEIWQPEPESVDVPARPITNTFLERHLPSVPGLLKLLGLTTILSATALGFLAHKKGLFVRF
Method: The effect of chronic ladostigil treatment on ChE activity in the cortex and hippocampus of rats was determined one week after icv STZ in 12 rats (3 treated with water and 9 with ladostigil). The effect of acute treatment with ladostigil 1 or 17 mg/kg was determined 2 hrs after drug administration. […] The brain was rapidly removed, washed with saline on ice and the cortex, hippocampus and striatum dissected out, quickly weighed and stored at −70° C. until assay. Total ChE activity in the cortex and hippocampus was measured as described in Wang et al., Gender differences in the effect of rivastigmine on brain cholinesterase activity and cognitive function in rats, Neuropharmacology (2000) 39:497-506, using the spectrophotometric method of Ellman et al., A new and rapid colorimetric determination of acetylcholinesterase activity, Biochem. Pharmacol. (1961) 7:88-95 with acetylthiocholine (Sigma Ltd) as a substrate using homogenate of 100 mg tissue in 1 ml phosphate buffer. […] MAO A and B activity was measured in homogenates of striatum as described in Weinstock et al., Limited potentiation of blood pressure response to oral tyramine by brain-selective monoamine oxidase A-B inhibitor, TV-3326 in conscious rabbits, Neuropharmacology (2002) 43:999-1005.

[1] = tested on: aged rats (spatial learning); assay: Example 3: spatial learning of aged rats in Morris water maze; format: in vivo, Wistar rats; conditions: 1 mg/kg/day in drinking fluid for four months from age 16 months
Method: Experiments were performed in 30 male rats of the Wistar strain. […] The rats were housed in pairs at an ambient temperature of 21° C. They were weighed once weekly and their fluid intake measured daily for two weeks and then twice weekly for the remaining 4 months. Ten of the rats were started on ladostigil 1 mg/kg/day in the drinking fluid when aged 16 months and given the drug for four months. The remaining 10 rats of the same age were given regular drinking water. At the end of the four months spatial memory of these 20 rats and of another 10 aged 3 months was tested in the Morris water maze as previously described (Shoham et al, 2006).

C#CCN[C@@H]1CCc2ccc(OC(=O)N(C)CC)cc21 [ladostigil, R(+)-6-(N-methyl,N-ethyl-carbamoyloxy)-N′-propargyl-1-aminoindan]
MAO-B (%) inhibition (MAO-B; 60 min): 11.3 ± 1.4 % | MAO-B (%) inhibition (MAO-B; 120 min (2 hrs)): 15% | Difference in spatial learning between young and old rats (Morris water maze) [1]: substantially abolished
